Laboratory results as given in patent US9522198B2, “Methods and compositions related to targeting tumors and wounds” (Sanford-Burnham Medical Research Institute, priority 2006, dated 2016).
“Also recorded” adds a separate entry of the source. Read-outs that look alike come from different tables or passages of the source. Ends that are not written are not given here.

What was measured:
PPC1 xenograft tumor = assay: Peptide overlay assay on frozen tumor sections; format: binding; conditions: PPC1 xenografts
Method: (§1) The mice were perfused through the heart 3 hours after the peptide injection and tissues removed for examination. For fibrin and fibronectin immunostaining, tissues were fixed with 4% paraformaldehyde and stained with biotinylated mouse fibrin(ogen) antiserum (Nordic Immunological Laboratories) or a polyclonal anti-mouse fibronectin (Chemicon), followed by streptavidin Alexa 594 or anti-rabbit Alexa 594 (Molecular Probes), respectively. For peptide overlay, sections of frozen OCT embedded tissue were incubated with 10 μg/ml fluorescein-conjugated peptide for 30 min at room temperature. Tissue fluorescence was quantified using Image-Pro Plus software. At least two images from representative microscopic fields were analyzed from each tissue sample and data from individual mice that received the same treatment (n=2-8) were pooled.

[1] = tested on: mouse Lewis lung carcinoma; assay: Peptide overlay assay on frozen tumor sections; format: binding
Method: as §1

fibrin(ogen) = assay: Co-localization of injected peptide with fibrin staining in tumor sections; format: in vivo, mouse; conditions: MDA-MB-435 xenograft sections, i.v. injected peptide
Method: as §1

fibronectin = assay: Aggregate formation with plasma proteins, light scattering at 600 nm (turbidity); format: biochemical
Source text: (§2) CLT1 contains a sequence of three consecutive hydrophobic residues, LII (leucine-isoleucine-isoleucine). This motif is very similar to the VII sequence (V, valine) which causes proteins to form large insoluble aggregates (Esteras-Chopo et al. 2005). […] The ability of CLT1 to aggregate proteins correlates with its cytotoxicity for human umbilical venous endothelial cells (HUVECs).

fibrinogen = target: T1, fibrinogen (Homo sapiens, UniProt P02671+P02675+P02679); assay: as above; format: biochemical
T1 sequence (P02671 20-629 limits assumed): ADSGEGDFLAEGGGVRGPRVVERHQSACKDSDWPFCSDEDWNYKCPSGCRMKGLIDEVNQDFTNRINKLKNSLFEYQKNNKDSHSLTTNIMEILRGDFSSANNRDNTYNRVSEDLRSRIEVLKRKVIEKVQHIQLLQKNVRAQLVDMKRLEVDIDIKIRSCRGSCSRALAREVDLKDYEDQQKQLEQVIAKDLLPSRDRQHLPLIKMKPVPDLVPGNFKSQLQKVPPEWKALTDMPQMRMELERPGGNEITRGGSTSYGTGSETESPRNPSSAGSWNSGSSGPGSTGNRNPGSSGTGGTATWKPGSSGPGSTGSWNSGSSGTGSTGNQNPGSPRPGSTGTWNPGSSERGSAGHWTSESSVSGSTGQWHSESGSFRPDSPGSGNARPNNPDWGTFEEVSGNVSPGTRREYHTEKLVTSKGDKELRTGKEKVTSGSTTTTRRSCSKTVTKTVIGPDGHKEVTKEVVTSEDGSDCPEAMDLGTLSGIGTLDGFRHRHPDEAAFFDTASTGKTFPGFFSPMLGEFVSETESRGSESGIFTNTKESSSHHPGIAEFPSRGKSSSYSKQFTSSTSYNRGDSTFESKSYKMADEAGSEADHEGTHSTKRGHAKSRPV
T1 sequence (P02675 31-491): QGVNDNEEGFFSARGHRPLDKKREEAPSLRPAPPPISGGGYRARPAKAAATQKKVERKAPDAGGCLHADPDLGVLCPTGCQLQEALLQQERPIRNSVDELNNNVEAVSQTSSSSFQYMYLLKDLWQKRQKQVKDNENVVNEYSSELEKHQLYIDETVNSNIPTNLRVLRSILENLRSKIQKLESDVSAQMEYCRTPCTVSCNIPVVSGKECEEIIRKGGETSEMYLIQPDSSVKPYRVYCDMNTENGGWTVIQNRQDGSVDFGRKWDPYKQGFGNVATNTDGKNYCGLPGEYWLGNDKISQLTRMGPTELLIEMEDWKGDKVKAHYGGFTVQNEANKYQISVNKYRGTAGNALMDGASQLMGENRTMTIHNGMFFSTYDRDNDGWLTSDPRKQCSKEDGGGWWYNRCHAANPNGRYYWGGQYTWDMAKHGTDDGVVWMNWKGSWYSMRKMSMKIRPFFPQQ
T1 sequence (P02679 27-453): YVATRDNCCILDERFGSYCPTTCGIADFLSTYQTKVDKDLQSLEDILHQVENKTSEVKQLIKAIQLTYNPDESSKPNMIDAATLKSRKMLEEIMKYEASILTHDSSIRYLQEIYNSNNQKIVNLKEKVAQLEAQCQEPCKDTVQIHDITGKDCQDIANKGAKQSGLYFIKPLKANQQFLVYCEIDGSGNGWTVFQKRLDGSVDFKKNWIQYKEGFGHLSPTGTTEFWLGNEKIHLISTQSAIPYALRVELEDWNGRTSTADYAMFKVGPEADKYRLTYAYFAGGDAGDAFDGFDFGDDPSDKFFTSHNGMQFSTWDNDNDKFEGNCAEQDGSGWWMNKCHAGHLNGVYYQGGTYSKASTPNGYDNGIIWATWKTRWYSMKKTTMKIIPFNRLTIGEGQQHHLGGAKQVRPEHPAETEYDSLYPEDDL
Source text: as §2

albumin = albumin (Homo sapiens, UniProt P02768); assay: Aggregate formation in albumin solution (turbidity); format: biochemical; conditions: added to an albumin solution
Source text: as §2

[2] = tested on: human umbilical venous endothelial cells (HUVECs); format: cell-based
Source text: as §2

## CGLIIQKNEC (also: cyclic, ring type not given here, fluorescein conjugate, site not given here) [CLT1, cyclic decapeptide from phage library screened on plasma clots; tested as fluorescein conjugate]
PPC1 xenograft tumor
  overlay binding: positive
[1]; co-incubation with control peptide
  overlay binding in presence of control peptide: not by a control peptide
[1]; co-incubation with unlabeled CLT1
  overlay binding in presence of unlabeled CLT peptide: inhibited; also recorded: eliminated
[1]; fluorescein-conjugated peptide 10 μg/ml, 30 min
  binding pattern in peptide overlay: produced a fibrillar network
fibrin(ogen)
  co-localization of peptide fluorescence with fibrin staining: co-localized; also recorded: overlapping distribution
fibronectin
  aggregate formation with fibronectin: form aggregates
fibrinogen
  aggregate formation with fibrinogen: form aggregates
albumin
  aggregate formation in albumin solution: not amyloidogenic
[2]; HUVECs
  cytotoxicity for endothelial cells: cytotoxic for endothelial cells
[2]; confluent HUVECs, 150 μg/ml
  cell death: not in confluent HUVECs
[2]; proliferating HUVECs, 150 μg/ml in culture media, within 24 h
  cell death: induced cell death
